US20050209232A1, “Pyridazinone ureas as antagonists of alpha4 integrins” (priority 2004, published 2005)

Experiments:
Balb/c mice = assay: In Vivo Model for Leukocytosis; parameters: species or system mouse; settings: bled 1-1.5 h after administration
Source text: In Vivo Model for Leukocytosis
Leukocytosis the increase in circulating white blood cells (leukocytes). This can be brought about by preventing leukocyte binding to integrin counter-receptor adhesion molecules expressed on high endothelial venules. This cell adhesion occurs between immunoglobulin superfamily molecules and integrins. Relevant examples of these paired interactions include Intracellular Adhesion Molecule-1 and AlphaL Beta2 integrin, Vascular Cell Adhesion Molecule-1 and α4β1 integrin, and Mucosal Addressin Cell Adhesion Molecule-1 and α4β7 integrin, respectively.
In this model, a compound that antagonizes these leukocyte-endothelial interactions will cause an increase in circulating leukocytes, defined as leukocytosis, as measured at 1-1.5 h post-administration. This leukocytosis is indicative that normal lymphocyte or leukocyte emigration from the peripheral circulation was prevented. Similar emigration of cells out of the circulation into inflamed tissues is responsible for the progression and maintainance of the inflammatory state. Leukocytosis is an indication that lymphocyte and leukocyte extravasation is prevented, and is predictive of general anti-inflammatory activity.
One week prior to being tested, 7-10 week old female Balb/c mice, n=8 per group, were bled and randomized according to leukocyte counts. One week later, the mice were adminstered test compound orally or subcutaneously and then bled 1-1.5 h after drug administration, approximately 1 h after the peak blood concentration of the compound has occurred. Whole blood, 250-350 microliters, was collected from each mouse into potassium-EDTA […] collection tubes (Becton-Dickenson) and mixed to prevent clotting.
Cell counts and differential counts on the whole blood preparation were performed using an Advia 120 Hematology System (Bayer Diagnostics). Cell counts as total leukocytes and as total lympohcytes were made and compared to counts made from mice dosed with vehicle only. Data were reported as percent of vehicle control for lymphocyte counts and total leukocyte counts.
Statistical analyses were performed using ANOVA with Dunnet's multiple comparison test.

α4β1 = biological target: T1, α4β1 (Homo sapiens, UniProt P05556+P13612); assay: Ramos Cell Adhesion Assay (α4β1 Mediated Adhesion/VCAM-1); format: cell-based; settings: Ramos cells adhering to recombinant hVCAM-1
T1 construct: Ramos cells, (50 μL at 2×10^6/mL) labeled with 5 μM Calcein AM; endogenous in cells; host or cells: Ramos cells
T1 sequence (P05556 21-798, one chain of several): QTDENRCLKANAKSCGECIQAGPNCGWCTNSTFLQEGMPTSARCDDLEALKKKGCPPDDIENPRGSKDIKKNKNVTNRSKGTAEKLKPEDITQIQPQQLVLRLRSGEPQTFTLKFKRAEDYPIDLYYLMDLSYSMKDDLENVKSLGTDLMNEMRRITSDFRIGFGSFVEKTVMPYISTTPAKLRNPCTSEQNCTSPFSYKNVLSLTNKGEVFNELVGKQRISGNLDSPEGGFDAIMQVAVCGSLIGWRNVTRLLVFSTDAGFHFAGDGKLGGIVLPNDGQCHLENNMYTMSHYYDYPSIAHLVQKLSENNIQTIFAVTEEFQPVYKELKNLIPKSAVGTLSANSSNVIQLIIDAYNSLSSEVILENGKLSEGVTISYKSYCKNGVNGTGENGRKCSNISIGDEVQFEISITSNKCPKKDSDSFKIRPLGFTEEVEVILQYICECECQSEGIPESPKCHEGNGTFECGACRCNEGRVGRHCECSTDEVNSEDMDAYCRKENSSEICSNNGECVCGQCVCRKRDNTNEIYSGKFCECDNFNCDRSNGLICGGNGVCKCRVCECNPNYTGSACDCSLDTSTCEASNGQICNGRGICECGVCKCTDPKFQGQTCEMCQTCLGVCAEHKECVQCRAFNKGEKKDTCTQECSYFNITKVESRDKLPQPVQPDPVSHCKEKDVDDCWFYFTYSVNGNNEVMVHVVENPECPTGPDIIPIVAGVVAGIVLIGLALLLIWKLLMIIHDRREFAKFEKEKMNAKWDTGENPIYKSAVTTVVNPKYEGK
Protocol: Ramos Cell Adhesion Assay (α4β1 Mediated Adhesion/VCAM-1)
Immulon 96 well plates (Dynex) were coated with 100 μL recombinant hVCAM-1 at 4.0 μg/mL in 0.05 M NaCO3 buffer pH 9.0 overnight at 4° C. (R&D Systems). Plates were washed 2 times in PBS with 1% BSA and blocked for 1 h@room temperature in this buffer. PBS was removed and compounds to be tested (50 μL) were added at 2× concentration. Ramos cells, (50 μL at 2×10^6/mL) labeled with 5 μM Calcein AM (Molecular Probes) for 1 h at 37° C., were added to each well and allowed to adhere for 1 h at room temperature. Plates were washed 4 × in PBS+1% BSA and cells were lysed for 15 minutes in 100 μL of 1 M Tris pH 8.0 with 1% SDS. The plate was read at 485 nm excitation and 530 nm emission.

human α4β7 integrin = biological target: T2, human α4β7 integrin (Homo sapiens, UniProt P13612+P26010); assay: α4β7-K562 Cell Adhesion Assay (α4β7 Mediated Adhesion/MAdCAM-1); format: cell-based; settings: K562 cells expressing human α4β7 adhering to FLAG-hMAdCAM-1, 1 mM Mn2+
T2 construct: expressed in transfected cells; host or cells: K562 cells, stably transfected
T2 sequence (P13612 34-1032): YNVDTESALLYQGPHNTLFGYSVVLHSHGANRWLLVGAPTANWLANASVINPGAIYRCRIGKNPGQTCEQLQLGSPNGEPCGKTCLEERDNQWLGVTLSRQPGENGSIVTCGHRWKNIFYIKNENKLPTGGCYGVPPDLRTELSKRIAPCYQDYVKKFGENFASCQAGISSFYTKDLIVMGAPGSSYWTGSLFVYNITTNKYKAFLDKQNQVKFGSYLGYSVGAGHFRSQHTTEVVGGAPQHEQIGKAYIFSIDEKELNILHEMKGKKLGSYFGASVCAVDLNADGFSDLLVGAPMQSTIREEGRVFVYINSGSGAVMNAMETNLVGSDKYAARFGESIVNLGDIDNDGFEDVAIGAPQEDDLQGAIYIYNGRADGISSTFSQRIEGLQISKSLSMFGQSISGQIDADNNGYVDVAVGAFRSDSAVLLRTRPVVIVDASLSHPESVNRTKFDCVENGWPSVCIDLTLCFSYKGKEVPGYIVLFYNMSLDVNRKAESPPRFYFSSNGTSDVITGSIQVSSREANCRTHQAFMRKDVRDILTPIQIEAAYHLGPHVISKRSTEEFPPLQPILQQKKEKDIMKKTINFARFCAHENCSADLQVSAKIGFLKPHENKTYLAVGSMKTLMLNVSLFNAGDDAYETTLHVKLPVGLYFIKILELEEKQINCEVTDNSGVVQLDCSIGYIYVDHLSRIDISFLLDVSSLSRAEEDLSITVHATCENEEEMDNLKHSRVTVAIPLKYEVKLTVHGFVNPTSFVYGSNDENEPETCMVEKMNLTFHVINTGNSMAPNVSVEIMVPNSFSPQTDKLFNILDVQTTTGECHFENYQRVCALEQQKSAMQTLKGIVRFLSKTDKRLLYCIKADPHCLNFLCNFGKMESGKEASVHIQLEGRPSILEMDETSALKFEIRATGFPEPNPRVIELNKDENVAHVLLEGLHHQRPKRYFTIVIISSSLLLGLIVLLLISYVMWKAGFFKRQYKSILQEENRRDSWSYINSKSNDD
T2 sequence (P26010 20-798): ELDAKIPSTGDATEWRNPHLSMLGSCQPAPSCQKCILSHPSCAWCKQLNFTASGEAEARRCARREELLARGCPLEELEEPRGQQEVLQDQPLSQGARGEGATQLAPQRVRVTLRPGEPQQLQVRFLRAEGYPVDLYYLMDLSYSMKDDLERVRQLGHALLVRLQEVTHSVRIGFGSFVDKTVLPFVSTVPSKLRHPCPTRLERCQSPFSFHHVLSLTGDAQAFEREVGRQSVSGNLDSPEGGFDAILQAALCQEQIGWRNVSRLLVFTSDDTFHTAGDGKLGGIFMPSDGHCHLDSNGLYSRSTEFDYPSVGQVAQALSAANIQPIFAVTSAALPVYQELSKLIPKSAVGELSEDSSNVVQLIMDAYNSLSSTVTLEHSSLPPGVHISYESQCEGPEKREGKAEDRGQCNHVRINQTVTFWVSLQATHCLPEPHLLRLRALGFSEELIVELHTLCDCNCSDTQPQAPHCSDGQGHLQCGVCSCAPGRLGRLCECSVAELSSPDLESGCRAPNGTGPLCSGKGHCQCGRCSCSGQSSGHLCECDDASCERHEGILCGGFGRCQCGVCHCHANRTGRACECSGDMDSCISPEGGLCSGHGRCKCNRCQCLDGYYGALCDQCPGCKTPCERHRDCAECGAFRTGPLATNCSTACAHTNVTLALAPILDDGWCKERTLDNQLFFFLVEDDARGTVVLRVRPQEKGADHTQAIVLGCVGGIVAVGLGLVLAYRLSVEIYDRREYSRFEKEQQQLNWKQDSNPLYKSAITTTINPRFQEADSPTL
Protocol: α4β7-K562 Cell Adhesion Assay (α4β7 Mediated Adhesion/MAdCAM-1)
M2 anti-FLAG Antibody Coated 96-well plates (Sigma) were coated for 1 hour at 4° C. with 2-8 μL/well recombinant FLAG-hMAdCAM-1 contained in 100 μL of Dulbecco's PBS, pH 7.4, with 1% BSA and 1 mM Mn^2+ (PBS-BSA-Mn). Plates were washed once with PBS-BSA-Mn. Buffer was removed and compounds to be tested (50 μL) were added at 2× concentration. Stably transfected K562 cells expressing human α4β7 integrin, (50 μL at 2×10^6/mL) that had been labeled with 100 μg/mL carboxymethyl fluorescein diacetate succinimidyl ester (CFDA-SE; Molecular Probes) for 15 min at 37° C. were added to each well and allowed to adhere for 1 h at room temperature. Plates were washed 4× in PBS-BSA-Mn and then cells were lysed for 2 min by addtion of 100 μL of PBS without Ca^2+, Mg^2+ supplemented with 0.1 M NaOH. The plate was read on a 96-well fluorescent plate reader at 485 nm excitation and 530 nm emission.

Row | Structure (SMILES) | Lymphoycte Counts % of Vehicle Control (Balb/c mice; 3 mg/kg sc) | Total Leukocyte Count % of Vehicle Control (Balb/c mice; 3 mg/kg sc) | Lymphoycte Counts % of Vehicle Control (Balb/c mice; 10 mg/kg sc) | Total Leukocyte Count % of Vehicle Control (Balb/c mice; 10 mg/kg sc) | Lymphoycte Counts % of Vehicle Control (Balb/c mice; 30 mg/kg sc) | Total Leukocyte Count % of Vehicle Control (Balb/c mice; 30 mg/kg sc) | IC50 (α4β1) [nM] | IC50 (human α4β7 integrin) [nM] | Lymphoycte Counts % of Vehicle Control (Balb/c mice; 3 mg/kg po) | Total Leukocyte Count % of Vehicle Control (Balb/c mice; 3 mg/kg po) | Lymphoycte Counts % of Vehicle Control (Balb/c mice; 10 mg/kg po) | Total Leukocyte Count % of Vehicle Control (Balb/c mice; 10 mg/kg po) | Lymphoycte Counts % of Vehicle Control (Balb/c mice; 30 mg/kg po) | Total Leukocyte Count % of Vehicle Control (Balb/c mice; 30 mg/kg po)
1 | COc1cnn(C)c(=O)c1-c1ccc(C[C@H](NC(=O)N(C)CC(C)C)C(=O)O)cc1 [Cpd 13] | 84.4 % of Vehicle Control | 84.4 % of Vehicle Control | 133.6 % of Vehicle Control | 133.5 % of Vehicle Control | 154.3 % of Vehicle Control | 149.5 % of Vehicle Control | 1750 | 17 |  |  |  |  |  | 
2 | COc1cnn(C)c(=O)c1-c1ccc(C[C@H](NC(=O)N(C)CC(C)C)C(=O)OCCO)cc1 [Cpd 21, 2-(3-Isobutyl-3-methyl-ureido)-3-[4-(5-methoxy-2-methyl-3-oxo-2,3-dihydro-pyridazin-4-yl)-phenyl]-propionic acid 2-hydroxy-ethyl ester] |  |  |  |  |  |  | > 5000 | 2900 | 148.1 % of Vehicle Control | 121.9 % of Vehicle Control | 156.8 % of Vehicle Control | 118.7 % of Vehicle Control | 189.6 % of Vehicle Control | 131.0 % of Vehicle Control
